Assays:
A375 melanoma xenograft = assay: A375 melanoma flank xenograft model; format: in vivo; settings: IV 60 mg/kg in 30% (w/v) Captisol daily for 16 days, mice
Experimental: FIG. 5: Effect of compound 1001 on tumour growth in vivo. Compound 1001 was administered IV at 60 mg/kg for 16 days in a flank xenograft model of melanoma (A375). Tumour volume was measured every 2-3 days. **p<0.01, ***P<0.001.
In vivo efficacy studies for compound 1001 were conducted using an A375 melanoma xenograft model in Foxn-1 nu/nu athymic mice. The human melanoma cell line A375 (sourced from American Type Culture Collection (ATCC), USA) was used for developing the flank xenograft model. Briefly, five million cells were injected subcutaneously in the right flank region of the animal. When the tumors reached 130-150 mm^3 the animals were randomized into two groups, each group with 8 animals in them, so that the average tumor volume of all the groups was same.
Compound 1001 was delivered intravenously (IV) at 60 mg/kg in a 30% (w/v) Captisol (cyclodextrin-containing) formulation daily for 16 days. The control group was dosed with the Captisol vehicle alone.

[1] = system: actin cytoskeleton in SK-N-SH neuroblastoma cells; assay: Microfilament disruption assay (phalloidin staining, linear feature quantitation); format: cell-based; settings: 0-40 μM, 24 hours post treatment
Experimental: FIG. 1: Imaging and quantitation of actin filaments in SK-N-SH neuroblastoma cells treated with compound (A) 1007, (B) 1013 and (C) 1016. Cells were stained with 488-Atto-Phallodin and DAPI to visualize the actin filament bundles and the nucleus, respectively. Shown in the top panel is a representative gray scale immunofluorescent image from control (vehicle alone), 5 μM and 10 μM treated cells. […] The coloured lines indicate the detected actin filaments. Also shown is the quantitation of cell number, filament number/cell and filament number/cell area (μM^2). Statistical analysis was performed using a one way ANNOVA-multiple comparison where each drug treated group was compared to the control. ****p<0.0001, […].
The ability of compounds 1007, 1013 and 1016 to disrupt the actin cytoskeleton was assessed in vitro using the microfilament disruption assay (FIG. 1).
Briefly, SK-N-SH neuroblastoma cells were seeded at 1800 cells/well in a 384 Perkin Elmer High Content Imaging “Cell Carrier” plate and left to plate down 24 hours prior to treatment. Cells were then treated with 0-40 μM of the test compounds (1:2 serial dilution in a 10 point dose response). 24 hours post treatment, cells were fixed with 4% w/v paraformaldehyde (PBS), permeabilized with Triton-X-100 and stained with 488-Atto-Phallodin and DAPI to visualize the actin filament bundles and the nucleus respectively. Single plane images were obtained on the Perkin Elmer Opera confocal microscope using a 20× objective. Twelve fields of view per condition (representing approximately 300-800 cells) were imaged. Images were then exported and changes in the organization and numbers of actin filaments within the cell were quantitated using a linear feature detection algorithm developed by CSIRO (Vindin et al. 2014). This algorithm detects the “ridge lines” or “peaks” in local pixel intensity in the cell image. It is these “ridge lines” that correspond to actin filament bundles and allow us to quantitate the number of filaments per cell.

Skeletal myosin II = assay: Actin-activated myosin II ATPase activity; format: biochemical; settings: 50 μM, absence of Tpm3.1
Experimental: FIG. 4: Effect of anti-tropomyosin compounds on actin-activated myosin II ATPase activity. Skeletal myosin II (30-60 nM) was incubated with 1% (v/v) DMSO or 50 μM of Blebbistatin, TR100 or compound 1001 for 5 min prior to mixing with 3 μM F-actin. Reactions were initiated with 1 mM ATP and inorganic phosphate release was detected spectrophotometrically. Data represents mean±SEM, for n=2-4 independent repeats. **P-value, 0.001<0.01.
To exclude an off-target activity, the impact of compound 1001 and TR100 (another small molecule with anti-tropomyosin activity) on myosin II ATPase activity was evaluated in the absence of Tpm3.1. The small molecule blebbistatin was included as a positive control known to inhibit myosin II ATPase activity. Blebbistatin acts by binding to the myosin-ADP-Pi complex and slowing the release of inorganic phosphate (Kovacs et al., 2004). Myosin II was pre-incubated with 50 μM of blebbistatin, TR100 or 1001 prior to mixing with F-actin. […] Compound 1001 had no effect on myosin ATPase activity at equivalent concentrations to that of TR100 (FIG. 4).

[2] = system: PC3 prostate cancer cells; assay: Anti-proliferative activity, cell-titre luminescent viability assay; format: cell-based; settings: 72 hours exposure
Experimental: (§1) The ability of compounds 1001-1018 and 1037-1039 to inhibit the proliferation of cancer cells representative of neuroblastoma, melanoma, prostate cancer, colorectal cancer, non-small cell lung carcinoma, and triple negative breast cancer was assessed (Table 1).
(§2) Briefly, a pre-determined number of cells as calculated from cell growth assays for each of the cell lines employed were seeded into their respective culture medium (using ATCC culture parameters—http://www.atcc.org) and cultured for 24 hours at 37° C. and 5% CO2 in 96-well culture plates. Once attached, each cell line was then exposed to increasing concentrations of each respective analogue (0.03, 0.3, 3 and 30 μM for compounds 1001-13 and 1015-18; 0.1, 0.3, 1, 3, 10 and 30 μM for compounds 1014 and 1037-39), cultured for a further 72 hours and exposed to cell-titre luminescent reagent (100 μL/well) for a further 30 minutes) to measure cell viability. Luminescence was captured using an EnVision multilabel reader and the data for each analogue concentration compared against no treatment control. For compounds 1001-13 and 1015-18, semi-log plots of Percent of Control versus concentration were prepared and IC50 determined using linear regression analysis. For compounds 1014 and 1037-39, cell viability was normalized to control (vehicle alone) and dose-response curves, and half maximal effective concentration (EC50) values were determined using Graph Pad Prism 6 (nonlinear regression sigmoidal dose-response variable slope).

[3] = system: DU145 prostate cancer cells; assay: as above; format: cell-based; settings: Homo sapiens, DU-145, 72 hours exposure
Experimental: as §1, §2

[4] = system: MDA-MB-231 breast cancer cells; assay: as above; format: cell-based; settings: Homo sapiens, 72 hours exposure
Experimental: as §1, §2

[5] = system: A549 lung (NSLC) cancer cells; assay: as above; format: cell-based; settings: Homo sapiens, 72 hours exposure
Experimental: as §1, §2

SK-Mel-28 melanoma cells = assay: as above; format: cell-based; settings: Homo sapiens, 72 hours exposure
Experimental: as §1, §2

Tpm3.1 = Tpm3.1 (Homo sapiens, UniProt P06753); assay: Cell free actin co-sedimentation assay; format: binding; settings: 50 μM compound, 3 μM F-actin
Experimental: (§3) FIG. 3: Impact of compound 1001 on the polymerization of tropomyosin and its subsequent association with actin. Increasing concentrations of (A) cytoskeletal Tpm3.1 or (B) muscle alpha-fast Tm (0.3-4.0 μM) were pre-incubated with 1% (v/v) DMSO (vehicle control) or 50 μM ATM-1001 prior to combining with 3 μM F-actin. The Tm/F-actin mixture was sedimented and the ratio of tropomyosin:actin in the pellet, normalized to the ratio that occurs at tropomyosin saturation, was plotted against the concentration of unbound tropomyosin in the supernatant.
(§4) Cell free actin co-sedimentation assays were preformed to analyze the impact of compound 1001 on the polymerization of tropomyosin and subsequent association with actin. The impact of compound 1001 on Tpm3.1 binding was compared to the striated muscle isoform, alpha-fast Tm, which has an unrelated C-terminus.

alpha-fast Tm = alpha-fast Tm (Homo sapiens, UniProt P09493); assay: Cell free actin co-sedimentation assay; format: binding; settings: 50 μM compound, 3 μM F-actin
Experimental: as §3, §4

alpha-fast Tm, sequence (P09493 whole entry): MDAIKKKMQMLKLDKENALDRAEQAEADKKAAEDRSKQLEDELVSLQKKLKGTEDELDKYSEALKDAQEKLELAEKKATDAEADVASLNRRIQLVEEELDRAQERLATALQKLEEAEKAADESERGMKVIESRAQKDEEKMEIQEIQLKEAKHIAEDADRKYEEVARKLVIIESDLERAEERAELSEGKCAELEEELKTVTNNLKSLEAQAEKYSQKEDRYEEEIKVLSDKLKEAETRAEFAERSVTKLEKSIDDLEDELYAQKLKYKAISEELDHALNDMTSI
Tpm3.1, sequence (P06753 1-248 isoform P06753-2): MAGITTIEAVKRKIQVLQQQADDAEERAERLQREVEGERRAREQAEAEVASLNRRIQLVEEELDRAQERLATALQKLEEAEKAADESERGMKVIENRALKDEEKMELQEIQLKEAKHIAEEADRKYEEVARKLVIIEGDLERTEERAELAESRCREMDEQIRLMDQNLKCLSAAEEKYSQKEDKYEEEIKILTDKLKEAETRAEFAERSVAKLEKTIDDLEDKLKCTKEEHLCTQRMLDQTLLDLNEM

## CN(C)CCCn1c2ccccc2c2cc(C(=O)N3CCN(CCc4ccccc4)CC3)ccc21 [Compound 1001, (9-(3-(dimethylamino)propyl)-9H-carbazol-3-yl)(4-phenethylpiperazin-1-yl)methanone]
A375 melanoma xenograft
  reduction in melanoma tumor growth: ~40%
  tolerance of treatment: well tolerated
[1]
  disruption of the actin cytoskeleton: strong on-target, dose-dependent profile
Skeletal myosin II
  effect on actin-activated myosin II ATPase activity: no effect
[2]
  IC50: 5.5 µM
[3]
  IC50: > 30 µM
[4]
  IC50: 4.4 µM
[5]
  IC50: 8.5 µM
SK-Mel-28 melanoma cells
  IC50: 2.3 µM
Tpm3.1
  polymerization and association of Tpm3.1 with actin: profoundly inhibited
alpha-fast Tm
  binding affinity and cooperativity of alpha-fast Tm for F-actin: not affected

Source: patent US20170158636A1, “FUNCTIONALISED AND SUBSTITUTED CARBAZOLES AS ANTI-CANCER AGENTS” (Novogen Ltd., priority 2014, published 2017)
